The assay concerns the target T1, human PD-1 / PD-L1-Ig binding on Jurkat cell line over-expressing human PD-1 (Jurkat-PD-1) (Homo sapiens, UniProt Q15116).
T1 construct: expressed in transfected cells; host or cells: Jurkat
The assay is described as follows: Jurkat-PD-1 Cell Binding High-Content Screening Assay (CBA). In kind it is cell-based. The note with it: PE-labeled PD-L1-Ig 20 nM final. The procedure, abridged: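 Read-out: high-content imaging of PE-tagged PD-L1-Ig bound to Jurkat cells overexpressing human PD-1, after fixation with 4% paraformaldehyde and Hoechst 33342 nuclear staining. Ligand was used at 20 nM final for 1 hour, after a 2 h compound exposure at 37° C in serum-containing DMEM.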

Where [1] appears, read: Jurkat-PD-1 cells, read-out: Jurkat HPD1_PDL1 IC50.

Structures are written as SMILES. Like-named read-outs stand apart in the source and are kept apart here. Where a SMILES comes first, the peptide text is derived from it. Bridges are numbered along the chain shown (N, C = ends). [ ]: non-standard residue; d: D form. The star is where a group is joined. Bip(4'-NHAc) = CC(=O)Nc1ccc(-c2ccc(C[C@H](N)C(=O)O)cc2)cc1; Phe(3-CF3) = N[C@@H](Cc1cccc(C(F)(F)F)c1)C(=O)O; Ala(morpholin-4-yl) = N[C@@H](CN1CCOCC1)C(=O)O; Phe(4-COOH) = N[C@@H](Cc1ccc(C(=O)O)cc1)C(=O)O; Phe(4-CH2NH2) = NCc1ccc(C[C@H](N)C(=O)O)cc1; Bip = N[C@@H](Cc1ccc(-c2ccccc2)cc1)C(=O)O; Phe(4-CN) = N#Cc1ccc(C[C@H](N)C(=O)O)cc1; Phe(3-Me) = Cc1cccc(C[C@H](N)C(=O)O)c1; Val(3-OH) = CC(C)(O)[C@H](N)C(=O)O; 3Pal = N[C@@H](Cc1cccnc1)C(=O)O; Cha = N[C@@H](CC1CCCCC1)C(=O)O; Cit = NC(=O)NCCC[C@H](N)C(=O)O; Carboxymethyl = O=C(O)C*; Nle = CCCC[C@H](N)C(=O)O; Orn = NCCC[C@H](N)C(=O)O; Dab = NCC[C@H](N)C(=O)O; Dap = NC[C@H](N)C(=O)O; Propargyl = C#CC*; CF3 = FC(F)(F)*

T1 sequence (Q15116 25-288): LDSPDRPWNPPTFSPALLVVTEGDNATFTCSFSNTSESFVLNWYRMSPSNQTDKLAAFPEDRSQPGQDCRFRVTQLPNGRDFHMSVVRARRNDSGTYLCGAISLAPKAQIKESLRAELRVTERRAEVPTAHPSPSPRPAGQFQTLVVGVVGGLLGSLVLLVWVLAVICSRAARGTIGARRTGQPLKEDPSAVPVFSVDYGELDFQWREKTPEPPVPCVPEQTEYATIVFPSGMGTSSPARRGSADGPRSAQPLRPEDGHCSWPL

As to `CCCC[C@@H]1NC(=O)[C@H](CCCNC(=N)N)NC(=O)[C@@H](CC(C)C)NC(=O)[C@H](CCCN)NC(=O)[C@H]([C@@H](C)CC)NC(=O)[C@H](Cc2ccc(-c3ccccc3)cc2)NC(=O)[C@H](C(C)C)NC(=O)[C@H](Cc2c[nH]c3ccccc23)NC(=O)[C@H](CC(=O)O)NC(=O)[C@H](Cc2ccc(O)cc2)NC(=O)[C@H](Cc2ccc(OCC(=O)O)cc2)NC(=O)CSC[C@@H](C(=O)N[C@@H](C)C(N)=O)NC(=O)[C@H]([C@@H](C)O)NC(=O)[C@H](C(C)C)NC1=O` [Compound 1150] ({CH2CO}-Y(Carboxymethyl)YDWV[Bip]I[Orn][dL]R[Nle]VTCA-NH2; thioether N-14), the IC50 – broadly, the concentration that inhibits the measured activity by half – under setting [1] worked out at 48.9 nM.
In the case of `Cc1cccc(C[C@@H]2NC(=O)[C@H](CC(=O)O)NC(=O)[C@H](Cc3ccc(OC(F)(F)F)cc3)NC(=O)[C@H](CCN)NC(=O)CSC[C@@H](C(=O)N[C@@H](CCN)C(N)=O)NC(=O)[C@H](CCC(=O)O)NC(=O)[C@H](C(C)(C)O)NC(=O)[C@H](CC3CCCCC3)NC(=O)[C@H](CCN)NC(=O)[C@@H](CC(C)C)NC(=O)[C@H](CCCN)NC(=O)[C@H](Cc3ccc(OCC(=O)O)cc3)NC(=O)[C@H](Cc3ccc(-c4ccccc4)cc3)NC(=O)[C@H](Cc3ccc(OCC(=O)O)cc3)NC2=O)c1` [Compound 2693] ({CH2CO}-[Dab]Y(CF3)D[Phe(3-Me)]Y(Carboxymethyl)[Bip]Y(Carboxymethyl)[Orn][dL][Dab][Cha][Val(3-OH)]EC[Dab]-NH2; thioether N-14), the IC50 under setting [1] turned out to be 42.4 nM.
The same measure, in the same setting: the result for `CC(C)C[C@@H]1NC(=O)[C@H](CCN)NC(=O)[C@@H](CC(C)C)NC(=O)[C@H](CN)NC(=O)[C@H](CCCNC(N)=O)NC(=O)[C@H](Cc2ccc(-c3ccccc3)cc2)NC(=O)[C@H](C(C)C)NC(=O)[C@H](Cc2c[nH]c3ccccc23)NC(=O)[C@H](CC(=O)O)NC(=O)[C@H](Cc2ccc(O)cc2)NC(=O)[C@H](CC(N)=O)NC(=O)CSC[C@@H](C(=O)N[C@@H](C)C(N)=O)NC(=O)[C@H]([C@@H](C)O)NC(=O)[C@H](C(C)C)NC1=O` [Compound 1024] ({CH2CO}-NYDWV[Bip][Cit][Dap][dL][Dab]LVTCA-NH2; thioether N-14) reads 37.3 nM; that for `Cc1cccc(C[C@@H]2NC(=O)[C@H](CC(=O)O)NC(=O)[C@H](Cc3ccc(C(=O)O)cc3)NC(=O)[C@H](Cc3ccc(OCC(=O)O)cc3)NC(=O)CSC[C@@H](C(=O)N[C@@H](C)C(N)=O)NC(=O)[C@H]([C@@H](C)O)NC(=O)[C@H](C(C)C)NC(=O)[C@H](CC(C)C)NC(=O)[C@H](CCN)NC(=O)[C@@H](CC(C)C)NC(=O)[C@H](CCCN)NC(=O)[C@H](C(C)C)NC(=O)[C@H](Cc3ccc(-c4ccccc4)cc3)NC(=O)[C@H](C(C)C)NC2=O)c1` [Compound 1221] ({CH2CO}-Y(Carboxymethyl)[Phe(4-COOH)]D[Phe(3-Me)]V[Bip]V[Orn][dL][Dab]LVTCA-NH2; thioether N-14), 3 nM; that for `CCCC[C@H]1NC(=O)[C@H](CCCN)NC(=O)[C@H]([C@@H](C)CC)NC(=O)[C@H](Cc2ccc(-c3ccccc3)cc2)NC(=O)[C@H](C(C)C)NC(=O)[C@H](Cc2c[nH]c3ccccc23)NC(=O)[C@H](CC(=O)O)NC(=O)[C@H](Cc2ccc(C(=O)O)cc2)NC(=O)[C@H](Cc2ccncc2)NC(=O)CSC[C@@H](C(=O)N[C@@H](C)C(N)=O)NC(=O)[C@H]([C@@H](C)O)NC(=O)[C@H](C(C)C)NC(=O)[C@H](CC2CCCCC2)NC(=O)[C@H](CCN)NC1=O` [Compound 1705], 14.3 nM.
`C#CCOc1ccc(C[C@@H]2NC(=O)CSC[C@@H](C(=O)N[C@@H](CCN)C(N)=O)NC(=O)[C@H](CCC(=O)O)NC(=O)[C@H](C(C)C)NC(=O)[C@H](CC3CCCCC3)NC(=O)[C@H](CCN)NC(=O)[C@@H](CC(C)C)NC(=O)[C@H](CCCN)NC(=O)[C@H](Cc3ccc(OCC(=O)O)cc3)NC(=O)[C@H](Cc3ccc(-c4ccccc4)cc3)NC(=O)[C@H](Cc3ccc(OCC(=O)O)cc3)NC(=O)[C@H](Cc3cccc(C)c3)NC(=O)[C@H](CC(=O)O)NC(=O)[C@H](Cc3ccc(OCC(=O)O)cc3)NC2=O)cc1` [Compound 1817] ({CH2CO}-Y(Propargyl)Y(Carboxymethyl)D[Phe(3-Me)]Y(Carboxymethyl)[Bip]Y(Carboxymethyl)[Orn][dL][Dab][Cha]VEC[Dab]-NH2; thioether N-14): under setting [1], the IC50 is 3.6 nM.
In the case of `CC(C)C[C@H]1NC(=O)[C@H](CCCN)NC(=O)[C@H](CCC(=O)O)NC(=O)[C@H](Cc2ccc(-c3ccccc3)cc2)NC(=O)[C@H](C(C)C)NC(=O)[C@H](Cc2c[nH]c3ccccc23)NC(=O)[C@H](CC(=O)O)NC(=O)[C@H](Cc2ccc(C#N)cc2)NC(=O)[C@H](CC(N)=O)NC(=O)CSC[C@@H](C(=O)N[C@@H](C)C(N)=O)NC(=O)[C@H]([C@@H](C)O)NC(=O)[C@H](C(C)C)NC(=O)[C@H](CC2CCCCC2)NC(=O)[C@H](CCN)NC1=O` [Compound 2185] ({CH2CO}-N[Phe(4-CN)]DWV[Bip]E[Orn][dL][Dab][Cha]VTCA-NH2; thioether N-14), the IC50 under setting [1] came to 28.1 nM.
In the case of `CC(=O)Nc1ccc(-c2ccc(C[C@@H]3NC(=O)[C@H](Cc4cccc(C(F)(F)F)c4)NC(=O)[C@H](CC(=O)O)NC(=O)[C@H](Cc4ccc(C(=O)O)cc4)NC(=O)[C@H](CN4CCOCC4)NC(=O)CSC[C@@H](C(=O)N[C@@H](CCN)C(N)=O)NC(=O)[C@H](CCC(=O)O)NC(=O)[C@H](C(C)C)NC(=O)[C@H](CC4CCCCC4)NC(=O)[C@H](CCN)NC(=O)[C@@H](CC(C)C)NC(=O)[C@H](CCCN)NC(=O)[C@H](Cc4ccc(C(=O)O)cc4)NC(=O)[C@H](Cc4ccc(-c5ccccc5)cc4)NC3=O)cc2)cc1` [Example 2736] ({CH2CO}-[Ala(morpholin-4-yl)][Phe(4-COOH)]D[Phe(3-CF3)][Bip(4'-NHAc)][Bip][Phe(4-COOH)][Orn][dL][Dab][Cha]VEC[Dab]-NH2; thioether N-14), the IC50 under setting [1] turned out to be 1.1 nM.
`CC(C)C[C@H]1NC(=O)[C@H](CCCN)NC(=O)[C@H](C(C)C)NC(=O)[C@H](Cc2ccc(-c3ccccc3)cc2)NC(=O)[C@H](C(C)C)NC(=O)[C@H](Cc2c[nH]c3ccccc23)NC(=O)[C@H](CC(=O)O)NC(=O)[C@H](Cc2ccc(O)cc2)NC(=O)[C@H](CN)NC(=O)CSC[C@@H](C(=O)N[C@@H](C)C(N)=O)NC(=O)[C@H]([C@@H](C)O)NC(=O)[C@H](C(C)C)NC(=O)[C@H](CC2CCCCC2)NC(=O)[C@H](CCN)NC1=O` [Compound 1172]: the IC50 under setting [1] was determined as 6.4 nM.
The same measure, in the same setting: the result for `Cc1cccc(C[C@@H]2NC(=O)[C@H](CC(=O)O)NC(=O)[C@H](Cc3ccc(OCC(=O)O)cc3)NC(=O)[C@H](Cc3cccnc3)NC(=O)CSC[C@@H](C(=O)N[C@@H](CCN)C(N)=O)NC(=O)[C@H](CCCN)NC(=O)[C@H](C(C)C)NC(=O)[C@H](CC3CCCCC3)NC(=O)[C@H](CCN)NC(=O)[C@@H](CC(C)C)NC(=O)[C@H](CCCN)NC(=O)[C@H](Cc3ccc(O)cc3)NC(=O)[C@H](Cc3ccc(-c4ccccc4)cc3)NC(=O)[C@H](Cc3ccc(O)cc3)NC2=O)c1` [Compound 2041] ({CH2CO}-[3Pal]Y(Carboxymethyl)D[Phe(3-Me)]Y[Bip]Y[Orn][dL][Dab][Cha]V[Orn]C[Dab]-NH2; thioether N-14) reads 4.9 nM; that for `CC(C)C[C@H]1NC(=O)[C@H](CCCN)NC(=O)[C@H](C(C)C)NC(=O)[C@H](Cc2ccc(-c3ccccc3)cc2)NC(=O)[C@H](C(C)C)NC(=O)[C@H](Cc2c[nH]c3ccccc23)NC(=O)[C@H](CC(=O)O)NC(=O)[C@H](Cc2ccc(OCC(=O)O)cc2)NC(=O)[C@H](Cc2ccc(OCC(=O)O)cc2)NC(=O)CSC[C@@H](C(=O)N[C@@H](C)C(N)=O)NC(=O)[C@H](CCCN)NC(=O)[C@H](C(C)C)NC(=O)[C@H](CC2CCCCC2)NC(=O)[C@H](CCN)NC1=O` [Compound 1743] ({CH2CO}-Y(Carboxymethyl)Y(Carboxymethyl)DWV[Bip]V[Orn][dL][Dab][Cha]V[Orn]CA-NH2; thioether N-14), 6 nM.
Regarding `CC(C)C[C@H]1NC(=O)[C@H](CCCN)NC(=O)[C@H](CN)NC(=O)[C@H](Cc2ccc(-c3ccccc3)cc2)NC(=O)[C@H](C(C)C)NC(=O)[C@H](Cc2c[nH]c3ccccc23)NC(=O)[C@H](CC(=O)O)NC(=O)[C@H](Cc2ccc(OCC(=O)O)cc2)NC(=O)[C@H](Cc2ccncc2)NC(=O)CSC[C@@H](C(=O)N[C@@H](C)C(N)=O)NC(=O)[C@H]([C@@H](C)O)NC(=O)[C@H](C(C)C)NC(=O)[C@H](CC2CCCCC2)NC(=O)[C@H](CCN)NC1=O` [Compound 1372], the IC50 (Jurkat HPD1_PDL1 IC50, Jurkat-PD-1 cells) amounted to 12.6 nM.
Regarding `CC(C)C[C@H]1NC(=O)[C@H](CCCN)NC(=O)[C@H](Cc2ccc(C(=O)O)cc2)NC(=O)[C@H](Cc2ccc(-c3ccccc3)cc2)NC(=O)[C@H](Cc2ccc(CN)cc2)NC(=O)[C@H](Cc2cccc(C(F)(F)F)c2)NC(=O)[C@H](CC(=O)O)NC(=O)[C@H](Cc2ccc(C(=O)O)cc2)NC(=O)[C@H](CN2CCOCC2)NC(=O)CSC[C@@H](C(=O)N[C@@H](CCN)C(N)=O)NC(=O)[C@H](CCC(=O)O)NC(=O)[C@H](C(C)C)NC(=O)[C@H](CC2CCCCC2)NC(=O)[C@H](CCN)NC1=O` [Example 2747] ({CH2CO}-[Ala(morpholin-4-yl)][Phe(4-COOH)]D[Phe(3-CF3)][Phe(4-CH2NH2)][Bip][Phe(4-COOH)][Orn][dL][Dab][Cha]VEC[Dab]-NH2; thioether N-14), the IC50 under setting [1] stood at 2.8 nM.
For `CC[C@H](C)[C@@H]1NC(=O)[C@H](Cc2ccc(-c3ccccc3)cc2)NC(=O)[C@H](C(C)C)NC(=O)[C@H](Cc2c[nH]c3ccccc23)NC(=O)[C@H](CC(=O)O)NC(=O)[C@H](Cc2ccc(O)cc2)NC(=O)[C@H](CC(N)=O)NC(=O)CSC[C@@H](C(=O)NCC(N)=O)NC(=O)[C@H](CO)NC(=O)[C@H](C(C)C)NC(=O)[C@H](CC(C)C)NC(=O)[C@H](CCN)NC(=O)[C@@H](CC(C)C)NC(=O)[C@H](CCN)NC1=O` [Compound 1123] ({CH2CO}-NYDWV[Bip]I[Dab][dL][Dab]LVSCG-NH2; thioether N-14), under setting [1], the IC50 is 14.8 nM.

Values taken from US20250163104A1, “MACROCYCLIC IMMUNOMODULATORS” (priority 2021, published 2025).
